Assay results: patent US20120122936A1, “LEAVE-ON NONSOLID SKIN CONDITIONING COMPOSITIONS CONTAINING 12-[(12-HYDROXYOCTADECANOYL)OXY] OCTADECANOIC ACID” (CONOPCO, INC., D/B/A UNILEVER, priority 2010, published 2012)

Key:
[1] = test system: primary human keratinocytes; experiment: Involucrin expression (differentiation) in primary human keratinocytes, Western blot; format: cell-based; settings: for Involucrin expression (arbitrary unit) at day 1: day 1 (24 h), 0.1% DMSO control 27.85; for Involucrin expression (arbitrary unit) at day 2: day 2 (48 h), 0.1% DMSO control 33.91; for Effect on human keratinocyte differentiation (involucrin expression compared to vehicle control): vs 0.1% DMSO, day 2
Experimental: The effect of 12HSA and 12-[(12-hydroxyoctadecanoyl)oxy]octadecanoic acid on differentiation in primary human keratinocytes was evaluated.
The compounds were dissolved in DMSO at 10 mM as the initial stock solutions and then diluted to appropriate final concentrations, 0.1 μM, 1 μM, 10 μM for 12-[(12-hydroxyoctadecanoyl)oxy]octadecanoic acid and 1 μM, 10 μM for the monomer with culture medium for treatments. 0.1% DMSO was used as the vehicle control. Primary human keratinocytes (Passage 2) grown to 70% confluency in EpiLife medium (Gibco MEP1500CA, 0.06 mM Calcium), trypsinized, cell number counted and Re-suspended in medium to make final cell counts at 5×10^4/ml. 100, 000 cells seeded per well in a 6 well plate. The cells again grown to 70% confluency, and then treated with 12-HSA monomer, 12-[(12-hydroxyoctadecanoyl)oxy]octadecanoic acid, and 0.1% DMSO as control. Treated cells incubated for 24 h and 48 h, and harvested at the corresponding time points. Proteins were extracted from the cultures and protein concentration was quantified by Quick start Bradford dye reagent (BioRad #500-0205). 5 ug protein samples were subjected to 4-20% protein gel (BioRad Criterion #345-0034), separated by running gel at 175 Volt for about 1 hour. Proteins were transferred to PVDF membrane (iBlot Gel transfer stacks PVDF, Invitrogen IB4010-01). The PVDF membrane was blocked in 1% BSA/PBS for 30 min and incubated with involucrin primary antibody (1:4000 dilution) in 1% BSA/PBS at 4° C. O/N (Sigma 19018), washed three times with TBS-Tween (Sigma T-9039) for 15 min each. The membrane then incubated with a secondary antibody in 1% BSA/PBS at RT for 1 h (Cy5-conjugated Affipure Goat anti mouse IgG, Jackson ImmunoResearch Lab #115-175-003), washed three times with TBS-Tween for 15 min each, and scanned with Licor/Odyssey (Li-Cor Bioscience). The images obtained were analyzed for the involucrin bands for signal intensity by Odyssey v3.0 analysis program (Li-Cor Bioscience).

[2] = test system: primary human neonatal fibroblasts; experiment: ATP production by primary human fibroblasts, CellTiter-Glo luminescent cell viability assay; format: cell-based; settings: for Luminescence reading (average): 2 x 24 h dosing, 4 wells, 0.1% DMSO control 2245457; for Effect on fibroblast energy production (ATP, luminescence readings): statistically significant improvement at 100 μM
Experimental: The effect of 12HSA and 12-[(12-hydroxyoctadecanoyl)oxy]octadecanoic acid on ATP production by primary human fibroblasts was assayed.
The samples were prepared as in Example 2, except the final concentrations were at 0.1 μM, 1 μM, 10 μM, 100 μM for both compounds. Again 0.1% DMSO in media is used as the vehicle control. Primary human neonatal fibroblasts grown in DMEM medium (high glucose supplemented with 2 mM Lglutamine, 10% fetal bovine serum, antibiotic) to 70% confluency, trypsinized, and re-suspended in medium. 7,500 cells seeded per well in the inner 60 wells of a 96-well plate in the same DMEM medium and grown for 3 days. The medium removed and the cells washed with serum-free DMEM, and then dosed with 200 μl serum-free DMEM medium containing appropriate concentrations of the testing compounds. Each dosing was replicated in 4 wells. After 24 hours, test compound solution was removed and the cells were treated with a fresh solution of the same treatment. After another 24 hours, the ATP production of the cultures was assayed by CellTiter-Glo luminescent Cell viability assay (Promega #G7572) and luminescence readings measured. Average readings were calculated for every treatment.
Statistical analysis was done by student t-Test with the assumption that the two samples had two tailed distribution with equal variance.

[3] = Observation of mixtures with lipophilic cosmetically acceptable carriers (gelling vs flowable liquid); format: physicochemical; settings: for Result of mixtures with indicated carriers: 10% in 90% carrier, summary of Table 3
Experimental: Various mixtures were prepared with common lipohilic cosmetically acceptable carrier that are liquid at temperatures up to 40° C. Observation were recorded in Table 3.

Observations ([3]; 10% in 90% DC200-10cS) | Observations ([3]; 10% in 90% Light Mineral Oil) | Observations ([3]; 10% in 90% Sunflower seed oil) | Observations ([3]; 10% in 90% Tween40) | Result of mixtures with indicated carriers [3] | Observations ([3]; 10% in 90% cyclomethicone-D5) | Observations ([3]; 10% in 90% isostearyl alcohol) | Observations ([3]; 10% in 90% oleic acid) | SMILES | Involucrin expression (arbitrary unit) at day 1 ([1]; 1 μM) | Involucrin expression (arbitrary unit) at day 2 ([1]; 1 μM) | Involucrin expression (arbitrary unit) at day 1 ([1]; 10 μM) | Involucrin expression (arbitrary unit) at day 2 ([1]; 10 μM) | Effect on human keratinocyte differentiation (involucrin expression compared to vehicle control) [1] | Luminescence reading (average) ([2]; 0.1 μM) | Luminescence reading (average) ([2]; 1 μM) | Luminescence reading (average) ([2]; 10 μM) | Luminescence reading (average) ([2]; 100 μM) | Effect on fibroblast energy production (ATP, luminescence readings) [2] | also measured
flowable | flowable | clear | clear | flowable, or even clear, liquids | flowable | clear | clear | CCCCCCC(O)CCCCCCCCCCC(=O)OC(CCCCCC)CCCCCCCCCCC(=O)O (stereo not shown) [12-[(12-hydroxyoctadecanoyl)oxy]octadecanoic acid] | 36.67 arbitrary unit | 33.14 arbitrary unit | 33.77 arbitrary unit | 29.46 arbitrary unit | did not have an effect | 2261382 | 2550326 | 2594799 | 2794979 | stimulated fibroblast energy production | Involucrin expression (arbitrary unit) at day 1 ([1]; 0.1 μM): 35.85 arbitrary unit; Involucrin expression (arbitrary unit) at day 2 ([1]; 0.1 μM): 32.61 arbitrary unit; Observations ([3]; 10% in 90% Isopropyl myristate): liquid
paste | hard gel | hard gel | gel | gelled the carrier | soft gel | gel | gel | CCCCCCC(O)CCCCCCCCCCC(=O)O (stereo not shown) [12HSA, 12-hydroxyoctadecanoic acid, reference compound] | 26.7 arbitrary unit | 56.03 arbitrary unit | 34.51 arbitrary unit | 69.52 arbitrary unit | stimulated human keratinocyte differentiation | 2359722 | 2398308 | 2304763 | 2151797 | did not | Observations ([3]; 10% in 90% Isopropyl palmitate): hard gel
